# Source: BindingDB's records for doi:10.1016/j.bmcl.2004.02.022 (Pfizer, 2004)
# pIC50: −log10 of the molar value.
# Assay: Inhibition of CCL3 induced chemotaxis in human T lymphocytes
row,pIC50,SMILES
1,9.00,"CC(C)(F)CCC(C[C@H](O)[C@H](Cc1ccccc1)NC(=O)c1cnc2ccccc2n1)C(=O)NN (stereo partly drawn) [Quinoxaline-2-carboxylic acid ((1S,2S)-1-benzyl-7-fluoro-4-hydrazinocarbonyl-2-hydroxy-7-methyl-octyl)-amide]"
2,6.36,"CC(C)(F)CCC(C[C@H](O)[C@H](Cc1ccccc1)NC(=O)c1cnc2ccccc2n1)C(=O)NCc1ccccc1 (stereo partly drawn) [Quinoxaline-2-carboxylic acid ((1S,2S)-1-benzyl-4-benzylcarbamoyl-7-fluoro-2-hydroxy-7-methyl-octyl)-amide]"
3,5.93,"CC(C)(O)CC[C@H](C[C@H](O)[C@H](Cc1ccccc1)NC(=O)c1cnc2ccccc2n1)C(N)=O [Quinoxaline-2-carboxylic acid ((1S,2S,4R)-1-benzyl-4-carbamoyl-2,7-dihydroxy-7-methyl-octyl)-amide]"
4,7.51,"CC(C)(F)CCC(C[C@H](O)[C@H](Cc1ccccc1)NC(=O)c1cnc2ccccc2n1)C(=O)NO (stereo partly drawn) [Quinoxaline-2-carboxylic acid ((1S,2S)-1-benzyl-7-fluoro-2-hydroxy-4-hydroxycarbamoyl-7-methyl-octyl)-amide]"
5,6.89,"CCNC(=O)C(CCC(C)(C)F)C[C@H](O)[C@H](Cc1ccccc1)NC(=O)c1cnc2ccccc2n1 (stereo partly drawn) [Quinoxaline-2-carboxylic acid ((1S,2S)-1-benzyl-4-ethylcarbamoyl-7-fluoro-2-hydroxy-7-methyl-octyl)-amide]"
6,5.15,"CN1CCN(C(=O)C(CCC(C)(C)F)C[C@H](O)[C@H](Cc2ccccc2)NC(=O)c2cnc3ccccc3n2)CC1 (stereo partly drawn) [Quinoxaline-2-carboxylic acid [(1S,2S)-1-benzyl-7-fluoro-2-hydroxy-7-methyl-4-(4-methyl-piperazine-1-carbonyl)-octyl]-amide]"
7,7.89,"CC(C)(F)CC[C@H](C[C@H](O)[C@H](Cc1ccccc1)NC(=O)c1cnc2ccccc2n1)C(N)=O [Quinoxaline-2-carboxylic acid ((1S,2S,4R)-1-benzyl-4-carbamoyl-7-fluoro-2-hydroxy-7-methyl-octyl)-amide]"
8,6.13,"CC(C)(F)CCC(C[C@H](O)[C@H](Cc1ccccc1)NC(=O)c1cnc2ccccc2n1)C(=O)N1CCCC1 (stereo partly drawn) [Quinoxaline-2-carboxylic acid [(1S,2S)-1-benzyl-7-fluoro-2-hydroxy-7-methyl-4-(pyrrolidine-1-carbonyl)-octyl]-amide]"

# More lines, now with the values behind:
row,SMILES,pIC50
1,"NC(=O)C(C[C@H](O)[C@H](Cc1ccccc1)NC(=O)c1cnc2ccccc2n1)C1(O)CCCCC1 (stereo partly drawn) [Quinoxaline-2-carboxylic acid [(1S,2S)-1-benzyl-4-carbamoyl-2-hydroxy-4-(1-hydroxy-cyclohexyl)-butyl]-amide]",6.92
2,"CC(C)(O)CCC(C[C@H](O)[C@H](Cc1ccccc1F)NC(=O)c1cnc2ccccc2n1)C(N)=O (stereo partly drawn) [Quinoxaline-2-carboxylic acid [(1S,2S)-4-carbamoyl-1-(2-fluoro-benzyl)-2,7-dihydroxy-7-methyl-octyl]-amide]",6.17
3,"NC(=O)C(C[C@H](O)[C@H](Cc1ccccc1)NC(=O)c1cnc2ccccc2n1)C1CCCCC1 (stereo partly drawn) [Quinoxaline-2-carboxylic acid ((1S,2S)-1-benzyl-4-carbamoyl-4-cyclohexyl-2-hydroxy-butyl)-amide]",8.30
4,"NC(=O)C(C[C@H](O)[C@H](Cc1ccccc1)NC(=O)c1cnc2ccccc2n1)C1CCOCC1 (stereo partly drawn) [Quinoxaline-2-carboxylic acid [(1S,2S)-1-benzyl-4-carbamoyl-2-hydroxy-4-(tetrahydro-pyran-4-yl)-butyl]-amide]",4.90
5,"NC(=O)C(C[C@H](O)[C@H](Cc1ccccc1)NC(=O)c1cnc2ccccc2n1)C1(O)CCC(F)(F)CC1 (stereo partly drawn) [Quinoxaline-2-carboxylic acid [(1S,2S)-1-benzyl-4-carbamoyl-4-(4,4-difluoro-1-hydroxy-cyclohexyl)-2-hydroxy-butyl]-amide]",7.17
6,"CNC(=O)[C@H](CC(C)C)C[C@H](O)[C@H](CC1CCCCC1)NC(=O)c1cnc2ccccc2c1 [Quinoline-3-carboxylic acid ((1S,2S,7R)-1-cyclohexylmethyl-2-hydroxy-6-methyl-4-methylcarbamoyl-heptyl)-amide]",6.08
7,"CC(C)CC[C@H](C[C@H](O)[C@H](Cc1ccccc1)NC(=O)c1cnc2ccccc2n1)C(N)=O [Quinoxaline-2-carboxylic acid ((1S,2S,4R)-1-benzyl-4-carbamoyl-2-hydroxy-7-methyl-octyl)-amide]",8.70
8,"O=C(N[C@@H](Cc1ccccc1)[C@@H](O)CC(C(=O)NO)C1CCC(F)(F)CC1)c1cnc2ccccc2n1 (stereo partly drawn) [Quinoxaline-2-carboxylic acid [(1S,2S)-1-benzyl-4-(4,4-difluoro-cyclohexyl)-2-hydroxy-4-hydroxycarbamoyl-butyl]-amide]",8.10
9,"NC(=O)C(C[C@H](O)[C@H](Cc1ccccc1)NC(=O)c1cnc2ccccc2n1)C1CCC(F)(F)CC1 (stereo partly drawn) [Quinoxaline-2-carboxylic acid [(1S,2S)-1-benzyl-4-carbamoyl-4-(4,4-difluoro-cyclohexyl)-2-hydroxy-butyl]-amide]",6.66
